Data published in US7169818B2, “Lysophosphatidic acid receptor agonists and antagonists” (University of Virginia Patent Foundation, priority 2000, dated 2007).
“Also recorded” adds a separate entry of the source.

Tests used:
Xenopus laevis ooctyes [1] = conditions: previously reported; cited from earlier work
mouse LPA1 [2] = target: T1, mouse LPA1 (Mus musculus, UniProt P61793); design: expressed in transfected cells; host or cells: HEK293T (transient); for part of the results RH7777 membranes; conditions: previously reported; cited from earlier work
T1 sequence (P61793 whole entry): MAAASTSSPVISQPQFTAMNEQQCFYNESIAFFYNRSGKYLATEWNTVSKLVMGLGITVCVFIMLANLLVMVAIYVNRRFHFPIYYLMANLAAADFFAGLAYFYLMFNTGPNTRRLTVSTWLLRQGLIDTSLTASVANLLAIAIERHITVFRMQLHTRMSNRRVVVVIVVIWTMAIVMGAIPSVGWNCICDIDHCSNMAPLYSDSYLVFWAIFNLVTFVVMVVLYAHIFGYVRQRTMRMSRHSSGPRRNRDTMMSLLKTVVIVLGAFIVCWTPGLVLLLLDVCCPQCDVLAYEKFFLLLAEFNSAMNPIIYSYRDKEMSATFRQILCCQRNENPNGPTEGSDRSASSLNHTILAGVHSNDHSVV

human platelets [3] = conditions: previously reported; cited from earlier work
human LPA2 [4] = target: T2, human LPA2 (Homo sapiens, UniProt Q9HBW0); design: expressed in transfected cells; host or cells: HEK293T (transient); conditions: previously reported; cited from earlier work
T2 sequence (Q9HBW0 whole entry): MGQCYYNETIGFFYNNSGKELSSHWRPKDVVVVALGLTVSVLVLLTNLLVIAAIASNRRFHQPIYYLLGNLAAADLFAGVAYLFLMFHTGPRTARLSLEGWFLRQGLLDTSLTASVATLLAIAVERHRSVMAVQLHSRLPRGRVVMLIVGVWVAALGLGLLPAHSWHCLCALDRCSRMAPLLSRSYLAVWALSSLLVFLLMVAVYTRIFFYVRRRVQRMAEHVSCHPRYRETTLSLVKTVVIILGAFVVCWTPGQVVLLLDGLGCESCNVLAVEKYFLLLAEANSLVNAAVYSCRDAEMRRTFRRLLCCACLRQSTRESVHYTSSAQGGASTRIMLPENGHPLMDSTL

human LPA3 [5] = target: T3, human LPA3 (Homo sapiens, UniProt Q9UBY5); design: expressed in transfected cells; host or cells: HEK293T (transient); conditions: previously reported; cited from earlier work
T3 sequence (Q9UBY5 1-353): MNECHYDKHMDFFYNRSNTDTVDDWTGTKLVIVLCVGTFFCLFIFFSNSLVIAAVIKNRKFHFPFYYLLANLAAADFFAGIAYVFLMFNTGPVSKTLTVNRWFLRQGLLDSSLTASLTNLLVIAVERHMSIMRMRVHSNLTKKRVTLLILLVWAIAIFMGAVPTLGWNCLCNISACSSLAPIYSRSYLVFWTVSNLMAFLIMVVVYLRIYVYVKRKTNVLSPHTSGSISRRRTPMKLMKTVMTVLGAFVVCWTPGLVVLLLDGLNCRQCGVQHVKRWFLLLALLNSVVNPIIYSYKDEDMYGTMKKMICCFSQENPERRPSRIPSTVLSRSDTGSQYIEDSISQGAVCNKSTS

LPA receptors = assay: whole cell assays of calcium mobilization or inhibition of cAMP accumulation, agonist activity; type: cell-based
Procedure: (§1) Assays for cAMP accumulation were conducted on populations of 5×10^5 cells stimulated with […] in the presence of the phosphodiesterase inhibitor isomethylbutylxanthine (IBMX) for 15 minutes at 30° C. cAMP was measured by automated radioimmunoassay.
A FLIPR™ (Molecular Devices, Inc.) was used to measure intracellular calcium in A431 and HEK293T cells. A431 cells were seeded (˜50,000 cells/well) in 96-well clear bottom black microplates (Corning Costar Corp., Cambridge, Mass.) and left overnight in CO2 incubator at 37° C. HEK293T cells were treated likewise, but seeded onto poly D-lysine coated microplates (Becton Dickinson, Franklin Lakes, N.J.). A431 cells were dye-loaded with 4 μM Fluo-3 AM ester (Molecular Probes Inc., Eugene, Oreg.) in a loading buffer (1×HBSS buffer, pH 7.4, containing 20 mM HEPES, 0.1% BSA, and 2.5 mM probenecid) for 1 hour at 37° C. Cells were then washed four times with the loading buffer and exposed in the FLIPR™ to sets of compounds. HEK293T cells were loaded with 2 μM Fluo-4 AM ester (Molecular Probes Inc., Eugene, Oreg.) in the same loading buffer without probenecid for 30 minutes and washed four times before being exposed to compounds in the FLIPR™. In all cases, each concentration of each compound was tested in at least quintuplicate.

mouse LPA1 [6] = target: T1, mouse LPA1; assay: GTP[γ35S] binding, LPA1-transfected HEK293T (or RH7777) cell membranes; type: biochemical; design: expressed in transfected cells; host or cells: HEK293T (transient); for part of the results RH7777 membranes; conditions: for antagonist activity at LPA1: block of LPA-induced GTP[γ35S] binding
Procedure: (§2) The appropriate receptor plasmid DNA (encoding mouse LPA1, human LPA2 or human LPA3) was mixed with equal amounts of expression plasmids (pcDNA3) encoding a mutated (C351F) rat Gi2a, cow β1, and γ2 proteins and these DNAs were used to transfect monolayers of HEK293T cells (where ‘T’ indicates expression of the SV-40 virus large T antigen) using the calcium phosphate precipitate method. After about 60 hours, cells were harvested, membranes were prepared, aliquoted and stored at −70° C. until use.
(§3) The GTP[35 γS] assay was performed as described by us previously. Membranes containing 5 ug of protein were incubated in 0.1 ml GTP-binding buffer (in mM: HEPES 50, NaCl 100, MgCl2 10, pH7.5) containing […], […], 0.1 nM GTP[35 γS] (1200 Ci/mmol), and indicated lipid(s) for 30 minutes at 30° C. Samples were analyzed for membrane-bound radionuclide using a Brandel Cell Harvester (Gaithersburg, Md.).
(§4) The X-intercept of the linear transformation is equal to the inverse log of the KI.
(§5) Membranes prepared from these cells are used to measure GTPγ[^35S] binding as a function of test compound concentration. The resulting dose-response curves provide relative potency (EC50) and efficacy (Emax) for the test compounds.

human LPA1 = target: T4, human LPA1 (Homo sapiens, UniProt Q92633); assay: GTP[γ35S] binding, baculovirus-infected insect Sf9 cell membrane preparation; type: biochemical
T4 construct: expressed in transfected cells; host or cells: Sf9 insect cells, recombinant baculovirus
T4 sequence (Q92633 whole entry): as the sequence (P61793 whole entry) above, with A4I, S8I, Q22P, Y40H, V61I, D193E, H194N, V269I, N331S, N335T counted along it
Procedure: The same activity was determined with human LPA1 using a recombinant baculovirus-infected insect Sf9 cell membrane preparation.

human LPA2 [7] = target: T2, human LPA2; assay: GTP[γ35S] binding, LPA2-transfected HEK293T cell membranes; type: biochemical; design: expressed in transfected cells; host or cells: HEK293T (transient); conditions: block of LPA-induced GTP[γ35S] binding
Procedure: as §2, §3, §5

[8] = system: renal injury following ischemia-reperfusion; assay: renal ischemia-reperfusion model; type: in vivo, C57BL6 mice; conditions: 1 mg/kg/2 hr
Procedure: C57BL6 mice (20 gm, 8 wks of age) were used for all studies. The surgical protocol of renal IR has been previously described (Okusa et al., 1999. Am J. Physiol. (Renal Physiol.) 277: F404–412; Okusa, et al., 2000 Am. J. Physiol. (Renal Physiol.) 279; F809–F818, and Okusa et al., 2001 Kidney Int. 59:2114–2125). For the injury protocol, bilateral flank incisions were made under anesthesia with a regimen that consists of ketamine (100 mg/kg, ip.), xylazine (10 mg/kg, ip.) and acepromazine (1 mg/kg, im.). Renal pedicles were exposed and cross-clamped for 27–32 min. Kidneys were examined for immediate reperfusion following clamp removal. Wounds were closed and mice were returned to cages. […] The mice were sacrificed and the kidneys harvested at 1, 4, 8, 24, 48 hrs, 5 and 7 days. […] Mice were sacrificed following 24 hrs of reperfusion and plasma was obtained for BUN and creatinine.

mouse LPA1 [9] = target: T1, mouse LPA1; assay: cAMP accumulation in RH7777 cells stably expressing LPA1; type: cell-based; design: expressed in transfected cells
Procedure: as §1
Rat hepatoma RH7777 cell monolayers were transfected with the mLPAI plasmid DNA using the calcium phosphate precipitate method and clonal populations expressing the neomycin phosphotransferase gene were selected by addition of geneticin (G418) to the culture media. The RH7777 cells were grown in monolayers at 37° C. in a 5% CO02/95% air atmosphere in growth media consisting of: 90% MEM, 10% fetal bovine serum, 2 mM glutamine and 1 mM sodium pyruvate.
(§6) wls-b8L and the other phosphonates were also tested also for activity in three whole cell assays. […] Finally, the activity of wls-b8L in activating a chloride conductance in Xenopus laevis ooctyes was measured.

human LPA3 [10] = target: T3, human LPA3; assay: GTP[γ35S] binding, LPA3-transfected HEK293T cell membranes; type: biochemical; design: expressed in transfected cells; host or cells: HEK293T (transient); conditions: block of LPA-induced GTP[γ35S] binding
Procedure: as §2, §3, §4, §5

Xenopus laevis ooctyes [11] = assay: chloride conductance / depolarization in Xenopus oocytes, endogenous receptor; type: cell-based; conditions: uninjected Xenopus oocytes
Procedure: as §6

human LPA2 [12] = target: T2, human LPA2; assay: chloride conductance in Xenopus oocytes injected with human LPA2 mRNA; type: cell-based; design: expressed in transfected cells; host or cells: Xenopus laevis oocytes, mRNA injection; conditions: 10 μM applied to the oocyte surface
Procedure: as §6

human platelets [13] = assay: platelet aggregation; type: cell-based; conditions: concentrations up to 10 micromolar
human LPA3 [14] = target: T3, human LPA3; assay: chloride conductance in Xenopus oocytes injected with human LPA3 mRNA; type: cell-based; design: expressed in transfected cells; host or cells: Xenopus laevis oocytes, mRNA injection; conditions: 10 μM applied to the oocyte surface
Procedure: as §6

SMILES: CCCCCCCC/C=C\CCCCCCCC(=O)NCCOP(=O)(O)O [NAEPA, N-oleoyl ethanolamide phosphoric acid]
- oocyte depolarization (literature) (Xenopus laevis ooctyes [1]): distinctly less active than LPA
- GTP[γ35S] binding at LPA1 containing membranes relative to LPA (literature) (mouse LPA1 [2]): nearly indistinguishable from LPA
- platelet aggregation (literature) (human platelets [3]): nearly indistinguishable from LPA
- GTP[γ35S] binding at LPA2 containing membranes relative to LPA (literature) (human LPA2 [4]): nearly indistinguishable from LPA
- activity at recombinant LPA3 relative to LPA (literature) (human LPA3 [5]): distinctly less active than LPA

SMILES: CCCCCCCC/C=C\CCCCCCCC(=O)N[C@@H](COP(=O)(O)O)Cc1ccccc1 [VPC12084]
- agonist activity in whole cell assays (LPA receptors): appreciable agonist activity
- antagonist activity at LPA1 (mouse LPA1 [6]): did block LPA activity

SMILES: CCCCCCCC/C=C\CCCCCCCC(=O)N[C@H](COP(=O)(O)O)Cc1ccc(OCc2ccccc2)cc1 [VPC12249]
- antagonist activity at human LPA1 (human LPA1): same activity
- antagonist activity at LPA2 (human LPA2 [7]): lack of antagonist activity
- agonist activity in whole cell assays (LPA receptors): completely devoid of agonist activity
- antagonist activity at LPA1 (mouse LPA1 [6]): surmountable antagonist
- tissue preservation, H and E sections [8]: marked degree of tissue preservation
- block of the inhibition of forskolin-induced increases in cAMP levels (mouse LPA1 [9]; RH7777 cells stably expressing LPA1): inhibited
- antagonist activity at LPA3 (human LPA3 [10]): surmountable antagonist

SMILES: CCCCCCCC/C=C\CCCCCCCC(=O)NCCCP(=O)(O)O [wls-b8L, (9Z)-N-(3-phosphonopropyl)Octadec-9-enamide]
- activation of chloride conductance, endogenous receptor (Xenopus laevis ooctyes [11]): does not evoke this response
- activation of chloride conductance, human LPA2 mRNA injected (human LPA2 [12]): very modest response
- receptor-type selectivity of agonist activity (LPA1 vs LPA2, LPA3) (mouse LPA1 [6]; GTP[γ35S] binding): more potent and efficacious at LPA1 than at either LPA2 or LPA3; also recorded: distinctly more selective regarding its agonist activity at a single LPA receptor (LPA1)
- aggregation of human platelets (human platelets [13]): does not elicit aggregation
- activation of chloride conductance, human LPA3 mRNA injected (human LPA3 [14]): very modest response
- inhibition of cAMP accumulation (agonist efficacy) (mouse LPA1 [9]; concentration of 1 μM): fully efficacious
